Results taken from publication PMC3180999 (Journal of medicinal chemistry, 2010).

Tests used:
AR = details: cited from earlier work
LNCaP/AR cells [1] = experiment: PSA expression readout in LNCaP/AR; assay type: cell-based; details: Schemes 18 and 19
[2] = system: LNCaP (hormone sensitive) cells; experiment: PSA expression readout in normal LNCaP; assay type: cell-based
LNCaP/AR cells [3] = experiment: LNCaP/AR xenograft in castrate SCID mice; assay type: in vivo
[4] = pharmacokinetics: serum concentration, steady state concentration
LAPC4/AR cells = experiment: LAPC4/AR xenograft in castrate SCID mice; assay type: in vivo
PSA secretion = experiment: relative PSA level / PSA secretion assay, cell line not named; assay type: cell-based; details: vs bicalutamide and 27 as standards, Scheme 9
[5] = oral, 0.1, 1 and 10 mg/kg once a day, Figure 7
[6] = serum concentration after IV injection, Figure 3

CC1(C)C(=O)N(c2ccc(C#N)c(C(F)(F)F)c2)C(=S)N1CCCCO [RU59063]
affinity for the AR (AR): nearly equal to that of the well known steroidal agonist R1881

CNC(=O)c1ccc(N2C(=S)N(c3ccc(C#N)c(C(F)(F)F)c3)C(=O)C23CCC3)cc1F [compound 91, N-Methyl-4-[7-(4-cyano-3-trifluoromethylphenyl)-8-oxo-6-thioxo-5,7-diazaspiro-[3.4]oct-5-yl]-2-fluorobenzamide]
activity in the hormone refractory LNCaP/AR assay (LNCaP/AR cells [1]): excellent activity
effect on hormone sensitive LNCaP cells (PSA) ([2]; 10% FBS, harvest on day 6 and day 10, Scheme 20): good activity
activity on xenografts over an extended period (LNCaP/AR cells [3]; 10 mg/kg/day, 31 days, Figure 8): retains activity
effect on LNCaP/AR (HR) tumor size (LNCaP/AR cells [3]; 10 and 50 mg/kg once a day, vs bicalutamide at the same dose, Figure 6): very active
dose required in dose response of tumor volume change (LNCaP/AR cells [3]; [5]): at least 1 mg/kg/day
optimal dose in dose response of tumor volume change (LNCaP/AR cells [3]; [5]): 10 mg/kg/day
pharmacokinetic (PK) profile ([4]; mouse, in vivo): superb pharmacokinetic (PK) profile

CC1(C)C(=O)N(c2ccc(C#N)c(C(F)(F)F)c2)C(=S)N1c1ccc(N=[N+]=[N-])cc1 [compound 25, 4-[3-(4-Azidophenyl)-4,4-dimethyl-5-oxo-2-thioxoimidazolidin-1-yl]-2-trifluoromethylbenzonitrile]
relative PSA level vs vehicle (DMSO) ([2]; bicalutamide as standard, Scheme 6): the best of this group

Cc1ccc(N2C(=S)N(c3ccc(C#N)c(C(F)(F)F)c3)C(=O)C23CCC3)cc1 [compound 38, 4-(8-Oxo-6-thioxo-5-(4-methylphenyl)-5,7-diazaspiro[3.4]oct-7-yl)-2-trifluoromethylbenzonitrile]
fold change in tumor volume of xenografts (LAPC4/AR cells; 10 mg/kg, pilot experiment, Figure 1): slightly superior
dose response in change in tumor volume of xenografts (LAPC4/AR cells; castration-resistant xenograft assay, model not named at the place, Figure 2): good dose response
relative PSA expression levels (PSA secretion): comparable to the dimethyl analogue 27
clearance [4, 6]: very rapid clearance
half-life [4, 6]: short half-life

C[C@]1(O)CC[C@H]2[C@@H]3CCC4=CC(=O)CCC4=C3C=C[C@@]21C [R1881]
affinity for the AR (AR): slightly higher than that of the natural ligand dihydrotestosterone
